Data as given in ChEMBL document CHEMBL1201862, “PubChem BioAssay data set” (2004).
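In this assay, cells in 96-well plates receive the compound at five concentrations for 48 hours. Endpoints are linearly interpolated between the surrounding concentrations. GI50 marks 50% less growth.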 Active and inactive are the calls of the source. Cut-off read from the data, not from the text of the source: active = GI50 up to about 1.1 µM and inactive = higher.

Columns and labels:
Assay in all cases: NCI anticancer screen, dose series, 48 h
MDA-MB-231 = test system: MDA-MB-231
786-0 = test system: 786-0
LOX IMVI = test system: LOX IMVI
SNB-19 = test system: SNB-19
ACHN = test system: ACHN
SK-MEL-5 = test system: SK-MEL-5
NCI-H23 = test system: NCI-H23
HOP-92 = test system: HOP-92
KM12 = test system: KM12
HCC 2998 = test system: HCC 2998
MOLT-4 = test system: MOLT-4
SK-MEL-28 = test system: SK-MEL-28
UO-31 = test system: UO-31
DU-145 = test system: DU-145
SF-295 = test system: SF-295
Malme-3M = test system: Malme-3M
A549 = test system: A549
SF-539 = test system: SF-539
OVCAR-8 = test system: OVCAR-8
SR = test system: SR

Measured: GI50

N#Cc1ccc(Oc2nc3ccccc3nc2-c2ccccc2)cc1
inactive: MDA-MB-231 > 100 µM | 786-0 > 100 µM | LOX IMVI > 100 µM | SNB-19 > 100 µM | ACHN > 100 µM | SK-MEL-5 > 100 µM | NCI-H23 > 100 µM | HOP-92 > 100 µM | KM12 > 100 µM | HCC 2998 > 100 µM | MOLT-4 > 100 µM | SK-MEL-28 > 100 µM | UO-31 > 100 µM | DU-145 > 100 µM | SF-295 > 100 µM | Malme-3M > 100 µM

CC(=O)O[C@@H]1C[C@@]23C[C@@]24CC[C@H](OC2OCC(O)C(O)C2O)C(C)(C)[C@@H]4CC=C3[C@]2(C)C[C@@H]3OC4(C[C@@H](C)[C@@H]3[C@@]12C)OC(O)[C@@]1(C)O[C@@H]41 (stereo not given in full)
inactive: MDA-MB-231 21.1 µM | 786-0 25.2 µM | A549 48.9 µM | LOX IMVI 23.4 µM | SNB-19 75.2 µM | ACHN 43.5 µM | SK-MEL-5 19.7 µM | NCI-H23 34 µM | HOP-92 54.3 µM | KM12 33.7 µM | HCC 2998 20.6 µM | SF-539 20.8 µM | SK-MEL-28 41.2 µM | UO-31 41.8 µM | OVCAR-8 41.7 µM | DU-145 43.2 µM | SF-295 25.7 µM | Malme-3M 33.2 µM

CCC(C#N)NCc1ccc(CNC(C#N)CC)cc1 (stereo not given)
inactive: MDA-MB-231 > 100 µM | 786-0 > 100 µM | A549 > 100 µM | LOX IMVI > 100 µM | SNB-19 > 100 µM | ACHN > 100 µM | SK-MEL-5 > 100 µM | NCI-H23 > 100 µM | HOP-92 > 100 µM | KM12 > 100 µM | HCC 2998 > 100 µM | MOLT-4 > 100 µM | SF-539 > 100 µM | SK-MEL-28 > 100 µM | UO-31 95.7 µM | OVCAR-8 > 100 µM | DU-145 > 100 µM | SF-295 > 100 µM | Malme-3M > 100 µM

OC(C1CCCC1=N/N=C1/CCCC1C(O)(C(F)(F)Cl)C(F)(F)Cl)(C(F)(F)Cl)C(F)(F)Cl (stereo not given)
inactive: MDA-MB-231 > 10 µM | 786-0 > 10 µM | A549 > 10 µM | LOX IMVI > 10 µM | SNB-19 > 10 µM | ACHN > 10 µM | SK-MEL-5 > 10 µM | NCI-H23 > 10 µM | HOP-92 > 10 µM | KM12 > 10 µM | HCC 2998 > 10 µM | MOLT-4 > 10 µM | SF-539 > 10 µM | SK-MEL-28 > 10 µM | OVCAR-8 > 10 µM | DU-145 > 10 µM | SF-295 > 10 µM | Malme-3M > 10 µM

CCCOP(=S)(N1CC1)N1CC1
inactive: 786-0 > 100 µM | A549 > 100 µM | LOX IMVI > 100 µM | SNB-19 > 100 µM | SR > 100 µM | ACHN > 100 µM | SK-MEL-5 > 100 µM | NCI-H23 > 100 µM | HOP-92 > 100 µM | KM12 > 100 µM | HCC 2998 > 100 µM | MOLT-4 > 100 µM | SF-539 > 100 µM | SK-MEL-28 > 100 µM | UO-31 > 100 µM | OVCAR-8 > 100 µM | SF-295 > 100 µM | Malme-3M > 100 µM

CCOC(=O)/C(ON)=C(/CC/C(C(=O)OC)=C(\ON)C(=O)OCC)C(=O)OC
inactive: 786-0 > 100 µM | A549 > 100 µM | LOX IMVI > 100 µM | SNB-19 > 100 µM | SR > 100 µM | ACHN > 100 µM | SK-MEL-5 > 100 µM | NCI-H23 > 100 µM | HOP-92 > 100 µM | KM12 > 100 µM | HCC 2998 > 100 µM | MOLT-4 > 100 µM | SF-539 > 100 µM | SK-MEL-28 > 100 µM | UO-31 > 100 µM | OVCAR-8 > 100 µM | SF-295 > 100 µM | Malme-3M > 100 µM

CC1=CC=C2C(C)(C)CC[C@@H]3OC(=O)[C@H]1[C@]23C
inactive: 786-0 > 100 µM | A549 > 100 µM | LOX IMVI > 100 µM | SNB-19 > 100 µM | SR > 100 µM | ACHN > 100 µM | SK-MEL-5 > 100 µM | NCI-H23 > 100 µM | HOP-92 > 100 µM | KM12 > 100 µM | HCC 2998 > 100 µM | MOLT-4 > 100 µM | SF-539 > 100 µM | SK-MEL-28 > 100 µM | UO-31 > 100 µM | OVCAR-8 > 100 µM | SF-295 > 100 µM | Malme-3M > 100 µM

CC(=O)OCC1OC(Oc2cc(C)c(O)cc2C/C=C(\C)CC/C=C(\C)C[C@@H](C=C(C)C)OC(C)=O)C(O)C(OC(C)=O)C1OC(C)=O (stereo not given in full)
inactive: MDA-MB-231 37.3 µM | 786-0 39.1 µM | A549 19.1 µM | LOX IMVI 13.9 µM | SNB-19 > 50 µM | ACHN 20 µM | SK-MEL-5 9.14 µM | NCI-H23 23.3 µM | HOP-92 > 50 µM | KM12 15.7 µM | HCC 2998 16.9 µM | MOLT-4 8.26 µM | SK-MEL-28 44.5 µM | UO-31 18 µM | OVCAR-8 16.1 µM | DU-145 28.6 µM | SF-295 22.2 µM | Malme-3M > 50 µM

OC1CCCN(C2(c3cccs3)CCCCC2)C1 (stereo not given)
inactive: MDA-MB-231 > 100 µM | 786-0 > 100 µM | LOX IMVI > 100 µM | ACHN > 100 µM | SK-MEL-5 > 100 µM | NCI-H23 > 100 µM | HOP-92 > 100 µM | KM12 > 100 µM | HCC 2998 > 100 µM | MOLT-4 > 100 µM | SK-MEL-28 > 100 µM | OVCAR-8 > 100 µM | DU-145 > 100 µM | SF-295 > 100 µM | Malme-3M > 100 µM

Cn1c(=O)n(-c2c3ccccc3c(Cl)c3ccccc23)n(C(C)(C)C)c1=O
inactive: MDA-MB-231 97.1 µM | 786-0 48.8 µM | A549 > 100 µM | LOX IMVI > 100 µM | SNB-19 > 100 µM | ACHN > 100 µM | SK-MEL-5 > 100 µM | NCI-H23 > 100 µM | HOP-92 57.7 µM | KM12 > 100 µM | HCC 2998 > 100 µM | MOLT-4 > 100 µM | SF-539 43.6 µM | SK-MEL-28 > 100 µM | UO-31 > 100 µM | OVCAR-8 49.5 µM | DU-145 > 100 µM | SF-295 > 100 µM | Malme-3M > 100 µM

N=C1NC(=O)N2CC12 (stereo not given) [IMEXON]
inactive: 786-0 > 100 µM | A549 > 100 µM | LOX IMVI > 100 µM | SNB-19 > 100 µM | SR 51.4 µM | ACHN > 100 µM | SK-MEL-5 > 100 µM | NCI-H23 > 100 µM | HOP-92 > 100 µM | KM12 > 100 µM | HCC 2998 > 100 µM | MOLT-4 > 100 µM | SF-539 > 100 µM | SK-MEL-28 > 100 µM | UO-31 > 100 µM | OVCAR-8 > 100 µM | SF-295 > 100 µM | Malme-3M > 100 µM
